The test concerns the target T1, IRAK4 protein in normal human PBMCs (Homo sapiens, UniProt Q9NWZ3).
T1 construct: host or cells: normal human PBMCs
T1 sequence (Q9NWZ3 1-460): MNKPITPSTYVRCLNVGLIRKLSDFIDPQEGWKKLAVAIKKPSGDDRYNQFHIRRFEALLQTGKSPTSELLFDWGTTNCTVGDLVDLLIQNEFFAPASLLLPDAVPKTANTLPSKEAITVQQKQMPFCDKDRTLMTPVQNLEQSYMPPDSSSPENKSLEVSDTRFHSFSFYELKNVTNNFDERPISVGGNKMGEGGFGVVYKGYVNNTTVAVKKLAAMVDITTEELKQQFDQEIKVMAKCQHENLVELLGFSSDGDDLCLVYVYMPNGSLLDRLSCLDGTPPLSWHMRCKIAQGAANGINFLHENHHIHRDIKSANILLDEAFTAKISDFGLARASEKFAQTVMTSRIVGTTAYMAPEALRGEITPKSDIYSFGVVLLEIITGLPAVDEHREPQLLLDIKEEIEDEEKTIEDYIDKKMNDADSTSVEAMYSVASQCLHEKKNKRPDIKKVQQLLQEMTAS
Nature of the test: Degradation of IRAK4 protein in normal human PBMCs (AlphaLISA). In kind it is cell-based. As to conditions: 24 h incubation. The method, then:
The cryopreserved normal human PBMCs (Milestone, PB010C) were thawed and resuspended in RPMI 1640 medium (Gibco, A1049101) supplemented with 10% fetal bovine serum (Gibco, 10099141), 100 U/mL penicillin, and 100 µg/mL streptomycin (Gibco, 15140122). After 0.95 mL of cells were plated in each well of a 24-well cell culture plate, 50 µL of diluted compound solution was added to corresponding wells with cells, such that the final concentration of the compound fell within the range of 0.01-3000 nM. The final concentration of DMSO was 0.25%. After the compound-treated cell plate was incubated in an incubator at 37° C. with 5% CO2 for 24 h, the cells were collected into 1.5 mL centrifuge tubes and centrifuged at 1000 rpm at 4° C. for 5 min. The cell pellets were washed twice with 1×DPBS. The resuspended cells were lysed with 100 μL of lysis buffer, left to stand on ice for 30 min, and then centrifuged at 14000 g at 4° C. for 10 min. The samples of the cell lysate supernatant after centrifugation were cryopreserved at −80° C. before testing. The cell lysis buffer was a Western and IP cell lysis buffer (Beyotime, P0013) supplemented with 1 mM phenylmethylsulfonyl fluoride and a protease inhibitor cocktail (Beyotime, P1008).
The total protein concentrations of the cell lysate samples were determined using a BCA protein quantification kit (Tiangen, PA115-02).
The prepared PBMC lysate samples were assayed for IRAK4 concentrations using a human IRAK4 AlphaLISA assay kit (PerkinElmer, AL3117C) to determine the degradation effects of the compounds on IRAK4. The method is as follows:
5 μL of each of IRAK4 standard solutions with different concentrations and test samples of cell lysate supernatant were added to a white 384-well plate (PerkinElmer, 6007299), and then 10 μL of 5× anti-IRAK4 […] beads was added to each well (final concentration of 10 μg/mL). The plate was incubated at room temperature for 30 min. Then 10 μL of 5× biotin-labeled anti-IRAK4 antibody was added to each well (final concentration of 1 nM), and the plate was incubated at room temperature for another 60 min. Finally, 25 μL of 2× streptavidin-labeled donor beads was added to each well (final concentration of 40 μg/mL), and the plate was incubated at room temperature for another 30 min. After the incubation was completed, AlphaLISA signal values were measured on a microplate reader EnVision (PerkinElmer, 2105) in the AlphaScreen standard mode. A standard curve was plotted from the AlphaLISA signal values of the IRAK4 standard solutions with different concentrations, and the IRAK4 concentration of each cell lysate supernatant was determined according to the corresponding concentrations on the standard curve for the AlphaLISA signal values of the test samples and by performing corresponding correction on the total protein concentration of each sample obtained by BCA quantification. The degradation rates for the compounds at each concentration were calculated by comparing the IRAK4 concentration with that of the control group. Then non-linear curve fittings for logarithmic concentration-inhibition rate were performed using GraphPad Prism 8, and the DC50 and Dmax values of the compound were obtained.

The compound `Cc1ccc(C(=O)N2CCC3(CCC(CN4CCC(n5cc(NC(=O)c6cnn7ccc(N8CCOCC8)nc67)c(C(F)F)n5)CC4)CC3)CC2)cc1N1CCC(=O)NC1=O` [Example 13, N-(3-(difluoromethyl)-1-(1-((3-(3-(2,4-dioxotetrahydropyrimidin-1(2H)-yl)-4-methylbenzoyl)-3-azaspiro[5.5]undecan-9-yl)methyl)piperidin-4-yl)-1H-pyrazol-4-yl)-5-morpholinopyrazolo[1,5-a]pyrimidine-3-carboxamide] came in with a DC50 of 210 pM and a Dmax of 98.2%.
Turning to `O=C1CCN(c2cc(C(=O)N3CCC4(CCC(CN5CCC(n6cc(NC(=O)c7cnn8ccc(N9C[C@H]%10C[C@@H]9CO%10)nc78)c(C(F)F)n6)CC5)CC4)CC3)ccc2Cl)C(=O)N1` [Example 1, 5-((1R,4R)-2-oxa-5-azabicyclo[2.2.1]heptan-5-yl)-N-(1-(1-((3-(4-chloro-3-(2,4-dioxotetrahydropyrimidin-1(2H)-yl)benzoyl)-3-azaspiro[5.5]undecan-9-yl)methyl)piperidin-4-yl)-3-(difluoromethyl)-1H-pyrazol-4-yl)pyrazolo[1,5-a]pyrimidine-3-carboxamide], the DC50 was 1280 pM and the Dmax was 99%.
On to `Cc1ccc(C(=O)N2CCC3(CCC(CN4CCC(n5cc(NC(=O)c6cnn7ccc(N8CC9(COC9)C8)nc67)c(C(F)F)n5)CC4)CC3)CC2)cc1N1CCC(=O)NC1=O` [Example 24, N-(3-(difluoromethyl)-1-(1-((3-(3-(2,4-dioxotetrahydropyrimidin-1(2H)-yl)-4-methylbenzoyl)-3-azaspiro[5.5]undecan-9-yl)methyl)piperidin-4-yl)-1H-pyrazol-4-yl)-5-(2-oxa-6-azaspiro[3.3]heptan-6-yl)pyrazolo[1,5-a]pyrimidine-3-carboxamide], for which the DC50 came to 480 pM and the Dmax came out at 96.2%.
On the same counts, the results for `Cc1ccc(C(=O)N2CCC3(CCC(CN4CCC(n5cc(NC(=O)c6cnn7ccc(N8CCC[C@H](O)C8)nc67)c(C(F)F)n5)CC4)CC3)CC2)cc1N1CCC(=O)NC1=O` [Example 25, (S)—N-(3-(difluoromethyl)-1-(1-((3-(3-(2,4-dioxotetrahydropyrimidin-1(2H)-yl)-4-methylbenzoyl)-3-azaspiro[5.5]undecan-9-yl)methyl)piperidin-4-yl)-1H-pyrazol-4-yl)-5-(3-hydroxypiperidin-1-yl)pyrazolo [1,5-a]pyrimidine-3-carboxamide] are 320 pM and 97.5%.
The compound `O=C1CCN(c2cc(C(=O)N3CCC4(CCC(CN5CCC(n6cc(NC(=O)c7cnn8ccc(N9CCS(=O)(=O)CC9)nc78)c(C(F)F)n6)CC5)CC4)CC3)ccc2Cl)C(=O)N1` [Example 29, N-(1-(1-((3-(4-chloro-3-(2,4-dioxotetrahydropyrimidin-1(2H)-yl)benzoyl)-3-azaspiro[5.5]undecan-9-yl)methyl)piperidin-4-yl)-3-(difluoromethyl)-1H-pyrazol-4-yl)-5-(1,1-dioxothiomorpholinyl) pyrazolo[1,5-a]pyrimidine-3-carboxamide] registered a DC50 of 530 pM and a Dmax of 98.2%.
On the same counts, the results for `COc1ccc(C(=O)N2CCC3(CCC(CCN4CCC(n5cc(NC(=O)c6cnn7ccc(N8CCOCC8)nc67)c(C(F)F)n5)CC4)CC3)CC2)cc1N1CCC(=O)NC1=O` [Example 16, N-(3-(difluoromethyl)-1-(1-(2-(3-(3-(2,4-dioxotetrahydropyrimidin-1(2H)-yl)-4-methoxybenzoyl)-3-azaspiro[5.5]undecan-9-yl)ethyl)piperidin-4-yl)-1H-pyrazol-4-yl)-5-morpholinopyrazolo [1,5-a]pyrimidine-3-carboxamide] are 700 pM and 98.4%.
Compound `N[C@H]1CCCN(c2ccn3ncc(C(=O)Nc4cn(C5CCN(CC6CCC7(CC6)CCN(C(=O)c6ccc(Cl)c(N8CCC(=O)NC8=O)c6)CC7)CC5)nc4C(F)F)c3n2)C1` [Example 30, (S)-5-(3-aminopiperidin-1-yl)-N-(1-(1-((3-(4-chloro-3-(2,4-dioxotetrahydropyrimidin-1(2H)-yl)benzoyl)-3-azaspiro[5.5]undecan-9-yl)methyl)piperidin-4-yl)-3-(difluoromethyl)-1H-pyrazol-4-yl)pyrazolo [1,5-a]pyrimidine-3-carboxamide] showed a DC50 of 1000 pM and a Dmax of 100%.
`COc1ccc(C(=O)N2CCC3(CCC(CN4CCC(n5cc(NC(=O)c6cnn7ccc(N8C[C@H]9C[C@@H]8CO9)nc67)c(C(F)F)n5)CC4)CC3)CC2)cc1N1CCC(=O)NC1=O` [Example 3, 5-((1R,4R)-2-oxa-5-azabicyclo[2.2.1]heptan-5-yl)-N-(3-(difluoromethyl)-1-(1-((3-(3-(2,4-dioxotetrahydropyrimidin-1(2H)-yl)-4-methoxybenzoyl)-3-azaspiro[5.5]undecan-9-yl)methyl)piperidin-4-yl)-1H-pyrazol-4-yl)pyrazolo[1,5-a]pyrimidine-3-carboxamide] displayed a DC50 of 280 pM and a Dmax of 97.7%.
`Cc1ccc(C(=O)N2CCC3(CCC(CN4CCC(n5cc(NC(=O)c6cnn7ccc(N8C[C@H]9C[C@@H]8CO9)nc67)c(C(F)F)n5)CC4)CC3)CC2)cc1N1CCC(=O)NC1=O` [Example 21, 5-((1R,4R)-2-oxa-5-azabicyclo[2.2.1]heptan-5-yl)-N-(3-(difluoromethyl)-1-(1-((3-(3-(2,4-dioxotetrahydropyrimidin-1(2H)-yl)-4-methylbenzoyl)-3-azaspiro[5.5]undecan-9-yl)methyl)piperidin-4-yl)-1H-pyrazol-4-yl)pyrazolo[1,5-a]pyrimidine-3-carboxamide] registered a DC50 of 450 pM and a Dmax of 96.2%.
`O=C1CCN(c2cc(C(=O)N3CCC4(CCC(CN5CCC(n6cc(NC(=O)c7cnn8ccc(N9CCNCC9)nc78)c(C(F)F)n6)CC5)CC4)CC3)ccc2Cl)C(=O)N1` [Example 5, N-(1-(1-((3-(4-chloro-3-(2,4-dioxotetrahydropyrimidin-1(2H)-yl)benzoyl)-3-azaspiro[5.5]undecan-9-yl)methyl)piperidin-4-yl)-3-(difluoromethyl)-1H-pyrazol-4-yl)-5-(piperazin-1-yl)pyrazolo[1,5-a]pyrimidine-3-carboxamide] displayed a DC50 of 600 pM and a Dmax of 98.8%.
In the case of `O=C1CCN(c2cc(C(=O)N3CCC4(CCC(CCN5CCC(n6cc(NC(=O)c7cnn8ccc(N9CCOCC9)nc78)c(C(F)F)n6)CC5)CC4)CC3)ccc2Cl)C(=O)N1` [Example 20, N-(1-(1-(2-(3-(4-chloro-3-(2,4-dioxotetrahydropyrimidin-1(2H)-yl)benzoyl)-3-azaspiro[5.5]undecan-9-yl)ethyl)piperidin-4-yl)-3-(difluoromethyl)-1H-pyrazol-4-yl)-5-morpholinopyrazolo[1,5-a]pyrimidine-3-carboxamide], half-maximal degradation (DC50) was put at 720 pM and the Dmax worked out at 95.7%.
For the compound `Cc1ccc(C(=O)N2CCC3(CCC(CN4CCC(n5cc(NC(=O)c6cnn7ccc(N8CCC[C@H](N)C8)nc67)c(C(F)F)n5)CC4)CC3)CC2)cc1N1CCC(=O)NC1=O` [Example 23, (S)-5-(3-aminopiperidin-1-yl)-N-(3-(difluoromethyl)-1-(1-((3-(3-(2,4-dioxotetrahydropyrimidin-1(2H)-yl)-4-methylbenzoyl)-3-azaspiro[5.5]undecan-9-yl)methyl)piperidin-4-yl)-1H-pyrazol-4-yl)pyrazolo[1,5-a]pyrimidine-3-carboxamide], half-maximal degradation (DC50) was put at 2170 pM and the Dmax is 99%.

Values taken from patent publication US20260174878A1, “IRAK4 DEGRADATION AGENT AND USE THEREOF” (LEADINGTAC PHARMACEUTICAL (SHAOXING) CO., LTD., priority 2022, published 2026).
